PMC7217877, “N-AS-triggered SPMs are direct regulators of microglia in a model of Alzheimer’s disease” (Nature Communications, 2020)
Where “and” joins values, the source holds several entries; their conditions need not be identical. Equal values may be shown once.

How the values were obtained:
SphK1 R185A = biological target: T1, SphK1 R185A (Homo sapiens, UniProt Q9NYA1, R185A); experiment: filter binding assay of [3H] acetyl-CoA to SphK1
T1 construct: His (N); made in house
From the text: (§1) Single point mutations in SphK1 (R56A, R57A, R24A, R185A, D178A, and F192A) and COX2 (S565A, N181A, T564A, and S567A) were generated using the In-Fusion Cloning Kits (Clontech) and ORF cDNA expression plasmids of human SphK1 and COX2 gene (Sino Biological Inc, HG15679-NH and HG12036-NH), according to the manufacturer’s instructions. The forward and reverse primers described in Supplementary Table 4. The SphK1 WT, SphK1 mutants, COX2 WT, and COX2 mutant plasmids were transformed in the One shot TOP 10 competent cell (Invitrogen). The bacteria were grown in Luria-Bertani (LB, Invitrogen) plates supplemented with 50 μg ml^−1 kanamycin (Sigma-Aldrich) at 37 °C. The bacterial cell pellets were resuspended in lysis buffer containing 20 mM sodium phosphate (GE Healthcare), 500 mM NaCl (GE Healthcare), 20 mM imidazole (pH 7.4) (GE Healthcare), 0.2 mg ml^−1 lysozyme (Sigma-Aldrich), 20 μg ml^−1 DNase I (Roche), 1 mM MgCl2 (Sigma-Aldrich), and 1 mM PMSF (Sigma-Aldrich) before being lysed by sonication and clarified by centrifugation at 15,493×g for 10 min. Proteins were purified from the soluble fraction using His-Spin Trap columns (GE Healthcare) and the binding and acetylation assays were performed.
(§2) Briefly, SphK1 WT and mutant enzymes (1 mU) were resuspended in 100 μl reaction buffer (20 mM HEPES; pH 7.4, 50 mM NaCl, 10 mM MgCl2, 1 mM EGTA, 0.02% Triton-X100, and 100 μM sphingosine, all from Sigma-Aldrich). […] Briefly, COX2 WT and mutant enzymes (1 mU) were resuspended in 100 μl reaction buffer (20 mM HEPES; pH 7.4, 50 mM NaCl, 10 mM MgCl2, 1 mM EGTA, and 0.02% Triton-X100, all from Sigma-Aldrich). Reactions were initiated by adding [^14C] N-AS (1–200 μM (0.1–20 μCi), ARC UK Ltd, ARC-1024) and incubated at 37 °C for 1 h. The reactions were terminated by adding 100 μl of ice-cold reaction buffer containing 5 mM cold N-AS and immediately filtered through P30 filtermat (Perkin-Elmer), followed by five washes.
(§3) The binding velocity was plotted and the Kcat and KM values were calculated from the Michaelis-Menten analysis using the Sigma-plot program (ver 10.0, Systat software Inc.).

SphK1 R56A = biological target: T2, SphK1 R56A (Homo sapiens, UniProt Q9NYA1, R56A); experiment: filter binding assay of [3H] acetyl-CoA to SphK1
T2 construct: His (N); made in house
T2 sequence (Q9NYA1 whole entry R56A): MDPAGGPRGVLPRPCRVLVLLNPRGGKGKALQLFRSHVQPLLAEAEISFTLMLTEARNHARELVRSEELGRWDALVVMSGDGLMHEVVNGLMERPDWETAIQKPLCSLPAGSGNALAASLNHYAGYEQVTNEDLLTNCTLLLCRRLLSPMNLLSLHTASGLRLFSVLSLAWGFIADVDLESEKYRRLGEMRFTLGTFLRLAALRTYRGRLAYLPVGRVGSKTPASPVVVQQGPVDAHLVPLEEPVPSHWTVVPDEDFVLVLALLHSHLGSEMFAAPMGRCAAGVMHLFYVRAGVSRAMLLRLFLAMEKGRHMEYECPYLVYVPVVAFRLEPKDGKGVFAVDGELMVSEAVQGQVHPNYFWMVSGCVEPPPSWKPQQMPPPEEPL
From the text: as §1, §2, §3

SphK1 R57A = biological target: T3, SphK1 R57A (Homo sapiens, UniProt Q9NYA1, R57A); experiment: filter binding assay of [3H] acetyl-CoA to SphK1
T3 construct: His (N); made in house
T3 sequence (Q9NYA1 whole entry R57A): as the sequence (Q9NYA1 whole entry R56A) above, with A56R, R57A counted along it
From the text: as §1, §2, §3

SphK1 R24A = biological target: T4, SphK1 R24A (Homo sapiens, UniProt Q9NYA1, R24A); experiment: filter binding assay of [3H] acetyl-CoA to SphK1
T4 construct: His (N); made in house
T4 sequence (Q9NYA1 whole entry R24A): as the sequence (Q9NYA1 whole entry R56A) above, with R24A, A56R counted along it
From the text: as §1, §2, §3

APP/PS1 mice = experiment: mRNA levels of inflammatory markers in cortex (real-time PCR, Fig 6j); type: in vivo, mouse; set-up: iNOS mRNA level (Figure 6j) / IL1b mRNA level (Figure 6j) / Arg1 mRNA level (Figure 6j) / IL4 mRNA level (Figure 6j) / TGFb mRNA level (Figure 6j) / TNF-a mRNA level (Figure 6j) / IL6 mRNA level (Figure 6j): scale not given here
Method: Transgenic mouse lines over-expressing the hAPP695swe (APP) and presenilin-1M146V (PS1) mutations were originated from GlaxoSmithKline (Harlow, UK)[32] and maintained as described previously. We purchased 5×FAD mice from Jackson Labs (Stock number. 34840-JAX). Because APP/PS1 and 5xFAD mice show sex differences in disease progression, we used only male mice. To examine possible therapeutic effect of N-AS and aspirin in APP/PS1 mice, the N-AS (30 mg kg^−1, Sigma-Aldrich, 01912) was injected daily s.c. for 8 weeks to 7-months-old APP/PS1 mice until the age of 9 months, and aspirin (2 mg kg^−1, Sigma-Aldrich, A5376)[33] was administrated orally to 7-months-old APP/PS1 mice for 8 weeks. Also, to confirm possible therapeutic efficacy of N-AS in 5×FAD, the N-AS (30 mg kg^−1, Sigma-Aldrich, 01912) was injected daily s.c. for 4 weeks to 3-months-old 5×FAD mice until the age of 4 months. Block randomization method was used to allocate the animals to experimental groups. To eliminate the bias, we were blinded in experimental progress such as data collection and data analysis. Mice were housed at temperature of 22 °C and a 12 h day/12 h night cycle with free access to tap water and food pellets. All protocols were approved by the Kyungpook National University Institutional Animal Care and Use Committee.
For total RNA extraction from the microglia derived from WT, APP/PS1, APP/PS1 mice treated with N-AS, and APP/PS1 mice treated with aspirin, the cells were isolated from the cortex of WT, APP/PS1, APP/PS1 mice treated with N-AS, or aspirin using the methods described above. Total RNA was isolated using the kit components according to the manufacturer’s instructions (RNeasy mini kit, 74134, QIAGEN). cDNA was synthesized from 5 μg of total RNA using a commercially available kit (Takara). Quantitative real-time PCR was performed using a Corbett research RG-6000 real-time PCR instrument. Primers are described in Supplementary Table 5.

[1] = read-out: KM of acetyl-CoA binding to SphK1
[2] = APP/PS1 + N-AS, individual animals

T1 sequence (Q9NYA1 whole entry R185A): as the sequence (Q9NYA1 whole entry R56A) above, with A56R, R185A counted along it

| Compound | Kcat of acetyl-CoA binding to SphK1 (SphK1 R185A) | Km (SphK1 R185A; [1]) | Kcat of acetyl-CoA binding to SphK1 (SphK1 R56A) | Km (SphK1 R56A; [1]) | Kcat of acetyl-CoA binding to SphK1 (SphK1 R57A) | Km (SphK1 R57A; [1]) | Kcat of acetyl-CoA binding to SphK1 (SphK1 R24A) | Km (SphK1 R24A; [1]) | Arg1 mRNA level (Figure 6j) (APP/PS1 mice; [2]) | IL1b mRNA level (Figure 6j) (APP/PS1 mice; [2]) | IL4 mRNA level (Figure 6j) (APP/PS1 mice; [2]) | IL6 mRNA level (Figure 6j) (APP/PS1 mice; [2]) | TGFb mRNA level (Figure 6j) (APP/PS1 mice; [2]) | TNF-a mRNA level (Figure 6j) (APP/PS1 mice; [2]) | iNOS mRNA level (Figure 6j) (APP/PS1 mice; [2]) | inflammatory response (mRNA of inflammatory markers) (APP/PS1 mice; N-AS vs vehicle APP/PS1) |
| --- | --- | --- | --- | --- | --- | --- | --- | --- | --- | --- | --- | --- | --- | --- | --- | --- |
| CC(=O)SCCNC(=O)CCNC(=O)[C@H](O)C(C)(C)COP(=O)(O)OP(=O)(O)OC[C@H]1O[C@@H](n2cnc3c(N)ncnc32)[C@H](O)[C@@H]1OP(=O)(O)O [Acetyl-CoA, acetyl-CoA] | 0.000237 s⁻¹ | 22.8 µM | 0.000203 s⁻¹ | 40.4 µM | 0.000305 s⁻¹ | 15.4 µM | 0.000273 s⁻¹ | 14.4 µM |  |  |  |  |  |  |  |  |
| CCCCCCCCCCCCC/C=C/[C@@H](O)[C@H](CO)NC(C)=O [N-AS, N-((2S,3R,E)-1,3-Dihydroxyoctadec-4-en-2-yl)acetamide] |  |  |  |  |  |  |  |  | 1.307 and 2.185 and 1.935 and 1.275 and 1.335 and 1.465 | 1.25 and 0.7 and 1.3 and 0.95 and 0.88 and 1.1 | 0.765 and 1.235 and 0.984 and 0.825 | 0.7652 and 0.81 and 0.821 and 0.83 and 0.957 | 1.79 and 2.4 and 2.595 and 2.81 | 0.865 and 1.34 and 1.37 and 1.005 and 1.085 | 0.92 and 1.42 and 1.85 and 1.2 and 0.78 and 0.55 | improved |
